Results reported in publication PMC4849654, “A High-Throughput Cell-Based Screen Identified a 2-[(E)-2-Phenylvinyl]-8-Quinolinol Core Structure That Activates p53” (PLoS ONE, 2016).
Where a SMILES comes first, the peptide text is derived from it. The star is where a group is joined. Cbz = O=C(OCc1ccccc1)*

Key:
[1] = test system: proteasome chymotrypsin-like activity; experiment: Proteasome-Glo chymotrypsin-like activity; format: cell-based; details: C33a cells, 2 hrs, 10 μM or 30 μM
[2] = test system: proteasome trypsin-like activity; experiment: Proteasome-Glo trypsin-like activity; format: cell-based; details: C33a cells, 2 hrs, 10 μM or 30 μM
p53-Luc [3] = experiment: TE6 p53-Luc targeted degradation reporter in C33a cells; format: cell-based; details: C33a cells expressing p53-Luc and TE6
Experimental: Adenoviruses were generated using the RAPAd CMV adenoviral expression system (Cellbiolabs, San Diego, CA). High-throughput screening was performed at the University of Illinois High-Throughput Screening Facility. For each group, 1x 10^7 C33a cells were plated in 150 mm^2 dishes in 20 ml cDMEM. For p53xTE6 group, 1 x 10^8 GFU/mL of p53-Luc adenovirus and 1 x 10^9 GFU/mL TE6 adenovirus were plated. For RbxTE7 group, 1 x 10^8 GFU/mL of p60RbRen adenovirus and 1 x 10^9 GFU/mL of βTrCP-E7 adenovirus were added. For control group, Ad-Red was substituted for TE6 or TE7 adenovirus in the p53 control and Rb control, respectively. […] Positive hits were scored as ≥ 2-fold above vehicle treated p53-Luc wells.
For the in vitro assay, E6 was cloned into the pMAL vector in frame with the maltose binding protein. […] We measured luciferase activity after 30 minutes. For the trypsin and chymotrypsin assay, C33a cells were incubated for 2 hours with the indicated compounds at 10 μM and assessed for chymotrypsin and trypsin activity using Proteasome-Glo assay (Promega). […] After incubation, cells were lysed and luciferase activity measured and p53 levels measured by Western blot.

HeLa cells = experiment: Cell viability (Cell Titer Glo), HeLa; format: cell-based; details: for IC50: HeLa cells, 48 hrs, Cell Titer Glo
Experimental: (§1) For the viability assays, 20,000 C33a, HeLa, or siHA cells were plated in white 96 well flat bottom plates. The cells were treated with compounds at concentrations from 0.5 to 30 μM for 48 hrs. After incubation, Cell Titer Glo (Promega) was added to the cells and luminescence read in a Tecan II plate reader. For annexin V and PI staining, 500,000 C33a cells were treated with inhibitor for 24 hrs. The cells were stained with Annexin V-FITC and PI according to eBioscience manufacturer’s instructions and analyzed by flow cytometry.

C33a cells [4] = experiment: Cell viability (Cell Titer Glo), C33a; format: cell-based; details: for IC50: C33a cells, 48 hrs, Cell Titer Glo
Experimental: as §1

p21, BAX and FAS = experiment: p53 target gene expression (p21, BAX, FAS) by qRT-PCR; format: cell-based; details: HeLa cells, 8h
Source text: (§2) RNA from C33a and HeLa was isolated by Trizol and reverse transcribed using the first strand synthesis kit from NEB. Primers for p53, GAPDH and PUMA were used for quantitative real-time PCR (qRT-PCR). Primer sequences include: PUMA (forward primer: CTCAACGCACAGTACGAG and reverse primer: […]), FAS (forward primer: TCTGCCATAAGCCCTGT and reverse primer: GTCTGTGTACTCCTTCCCT), p21 (forward primer: […] and reverse primer: […]), and BAX (forward primer: […] and reverse primer: […]). ΔΔCt values were determined for PUMA using GAPDH to normalize data. Bio-rad SYBR green was used for the amplification and detection of the PCR products on an iCycler (Bio-rad).

p53 [5] = biological target: T1, p53 (Homo sapiens, UniProt P04637, R273C); experiment: p53 nuclear localization by immunofluorescence; format: cell-based; details: C33a cells, 30 μM, 8 hrs
T1 construct: endogenous in cells; host or cells: C33a
Experimental: C33a cells were plated into chamber slides and treated with 30 μM of compounds 3 or, 4 for 4, or 8 hours. As a control, 30 μM cisplatin was used. The cells were fixed with 2.5% formaldehyde for 30 minutes, followed by permeabilization with 0.01% Triton X100 for 30 minutes. Cells were blocked with 5% goat serum for 30 minutes and stained overnight with anti-p53 (Santa Cruz, antibody FL-303) or anti-phospho-H2A.X (cell signaling) in 1% FCS in PBS at 4°. The following day, the cells were washed with PBS and incubated for 45 minutes with anti-rabbit-FITC and DAPI in 1% FCS in PBS. The cells were washed and mounted with ProLong Gold.

p53 [6] = biological target: T1, p53; experiment: Nuclear/cytoplasmic fractionation and Western analysis of p53; format: cell-based; details: C33a cells, 6 hrs, Western
Experimental: For nuclear/cytoplasmic fractionation, 1 × 10^7 C33a cells were treated with 30 μM compound for 6 hrs. The cells were washed with PBS and lysed in 1000 μL of cytoplasmic extraction buffer (10 mM KCl, 10 mM HEPES, pH 7.9, 0.1 mM EDTA, 1 mM dithiothreitol) and incubated on ice for 20 min. 50 μL of 10% NP-40 was added to each lysate, vortexed and then centrifuged at 12,000 × g for 10 min. The cytosolic fraction was collected and the pellet containing the nuclei suspended in 50 μL of nuclear extraction buffer (0.4 M NaCl, 20 mM HEPES, pH 7.9, 1 mM EDTA). The nuclear fraction was incubated for 30 min on ice. The samples were spun at 14,000 × g for 10 min and the supernatants were collected. To concentrate the cytoplasmic fraction, 500 μL methanol, and 200 μL chloroform were added and the samples were vortexed, centrifuged for 10 min at 14,000 × g, and the upper and lower layer were discarded. The solid interphase was collected and suspended in 50 μL of lysis buffer. Equal cell equivalents were loaded on a gel and electrophoresed. For whole cell lysates, C33a cells were lysed with a modified RIPA buffer and subjected to SDS-PAGE electrophoresis. The gels were transferred to nitrocellulose and blots probed with antibodies for p53 (Santa Cruz, antibody FL-303), lamin A/C, and calnexin (Santa Cruz Biotechnology).

PUMA = PUMA transcription by qRT-PCR; format: cell-based; details: 30 μM, 8h
Source text: as §2

siHA cells = experiment: Cell viability (Cell Titer Glo), siHA; format: cell-based; details: 48h
Experimental: as §1

C33a cells [7] = experiment: Cell viability after p53 siRNA knockdown; format: cell-based; details: p53 siRNA vs scrambled, 10 μM, 48 hrs
Experimental: C33a cells were transfected with 100 pmol siRNA for p53 (Dharmacon, L-003329-00-0005) or AllStar control (Qiagen) using lipofectamine2000 according to manufacturer’s instructions. The cells were incubated for 24 hrs and then split and incubated with 10 μM compounds. Cell viability was measured after 48 hours by Cell Titer Glo. Efficiency of knockdown was determined by quantitative RT-PCR using SYBR green.

p53-Luc [8] = experiment: In vitro E6 degradation assay (recombinant E6 with p53-Luc lysates); format: biochemical; details: 50 ng recombinant E6, 10 μM compound, C33a lysates, 6 hours
Experimental: For the in vitro assay, E6 was cloned into the pMAL vector in frame with the maltose binding protein. The E6 was expressed in bacteria and purified on amylose column. C33a cells were transfected with p53-Luc and incubated overnight. 50 ng recombinant E6 was incubated with 10 μM compound and C33a lysates for 6 hours at 30 degrees. We measured luciferase activity after 30 minutes. For the trypsin and chymotrypsin assay, C33a cells were incubated for 2 hours with the indicated compounds at 10 μM and assessed for chymotrypsin and trypsin activity using Proteasome-Glo assay (Promega). For the in vivo degradation assay, C33a cells expressing Ad-TE6 and Ad-p53 or expressing Ad-TE7 and Ad-Rb-Ren were treated for 8 hours with compounds. After incubation, cells were lysed and luciferase activity measured and p53 levels measured by Western blot.

| Compound | chymotrypsin-like proteasome activity [1] | trypsin-like proteasome activity [2] | restoration of p53-Luc luciferase activity (p53-Luc [3]) | IC50 (HeLa cells) [µM] | IC50 (C33a cells [4]) [µM] | expression of p21, BAX and FAS (p21, BAX and FAS) | further results |
| --- | --- | --- | --- | --- | --- | --- | --- |
| CC(C)C[C@@H](C=O)NC(=O)[C@H](CC(C)C)NC(=O)[C@H](CC(C)C)NC(=O)OCc1ccccc1 [MG132, reference compound] (Cbz-Leu-Leu-Leu-aldehyde) | significantly inhibited | significantly inhibited | – | – | – | – | – |
| OCc1ccc(-c2ccc(-c3ccc(CO)s3)o2)s1 [RITA] | – | – | did not restore p53-Luc activity | – | – | – | – |
| CC(C)C[C@H](NC(=O)[C@H](Cc1ccccc1)NC(=O)c1cnccn1)B(O)O [bortezomib] | – | – | restored p53-Luc luciferase activity | – | – | – | – |
| N.N.[Cl][Pt][Cl] [cisplatin, reference compound] | – | – | – | 4.6 | 24 | – | – |
| COc1cc(/C=C/c2ccc3cccc(O)c3n2)cc(Br)c1OC [compound 37] | – | – | – | – | – | induced expression | – |
| Cc1cccc(/C=C/c2ccc3cccc(O)c3n2)c1O [compound 3] | did not significantly reduce | did not significantly reduce | – | 6 | 3.8 | induced expression | p53 nuclear accumulation, % of cell nuclei (p53 [5]): 51.1±2.18 % of cell nuclei; nuclear accumulation of p53 in nuclear fraction compared to vehicle (p53 [6]): higher levels of nuclear accumulation of p53; PUMA transcription upregulation (PUMA; C33a cells): 3.92±0.27 fold; PUMA transcription upregulation (PUMA; HeLa cells): 4.35±0.22 fold; cell viability at 30 μM (HeLa cells; HeLa, 30 μM, 48h): decreased viability; cell viability at 30 μM (C33a cells [4]; C33a, 30 μM, 48h): decreased viability; cell viability at 30 μM (siHA cells): decreased viability; effect of p53 gene knockdown on C33a sensitivity to compound (C33a cells [7]): significantly reversed; restoration of p53 levels in vitro (p53-Luc [8]): restored p53 levels in vitro to similar levels as the proteasome inhibitor MG132 |
